Assay [1] deals with T1, GPR30 (Homo sapiens, UniProt Q99527).
T1 construct: gene GPER1; hGPR30-HA (C-terminal HA tag), plasma membrane fraction of HEK293 cells
The experiment in a line: scintillation proximity assay with […]C-bicarbonate on membranes; the EC50 is from inositol phosphate accumulation in HEK293 cells. It is filed as cell-based.

Assay [2] concerns the target T2, GPR30 (Danio rerio, UniProt B3G515).
T2 construct: gene gper1

Assay [3] addresses T3, GPR30 (Rattus norvegicus, UniProt O08878).
T3 construct: gene Gper1

Assay [4] concerns the target T4, GPR30 (Mus musculus, UniProt Q8BMP4).
T4 construct: gene Gper1; mGPR30 stably expressed in MCF-7 cells
T4 sequence (Q8BMP4 1-375): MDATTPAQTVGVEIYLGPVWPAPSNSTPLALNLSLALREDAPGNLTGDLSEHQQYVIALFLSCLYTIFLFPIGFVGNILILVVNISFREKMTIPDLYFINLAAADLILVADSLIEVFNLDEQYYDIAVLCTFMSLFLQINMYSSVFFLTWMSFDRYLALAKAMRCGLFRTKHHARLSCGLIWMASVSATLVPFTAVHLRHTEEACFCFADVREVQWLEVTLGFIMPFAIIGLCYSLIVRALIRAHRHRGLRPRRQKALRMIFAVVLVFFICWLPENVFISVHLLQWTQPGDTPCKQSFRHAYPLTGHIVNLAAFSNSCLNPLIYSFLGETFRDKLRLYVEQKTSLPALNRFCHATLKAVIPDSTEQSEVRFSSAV
Put plainly: inositol phosphate accumulation in MCF-mGPR30 cells; calcium responses lost in Gpr30-null mural cells. It is filed as cell-based.

T1 sequence (Q99527 whole entry): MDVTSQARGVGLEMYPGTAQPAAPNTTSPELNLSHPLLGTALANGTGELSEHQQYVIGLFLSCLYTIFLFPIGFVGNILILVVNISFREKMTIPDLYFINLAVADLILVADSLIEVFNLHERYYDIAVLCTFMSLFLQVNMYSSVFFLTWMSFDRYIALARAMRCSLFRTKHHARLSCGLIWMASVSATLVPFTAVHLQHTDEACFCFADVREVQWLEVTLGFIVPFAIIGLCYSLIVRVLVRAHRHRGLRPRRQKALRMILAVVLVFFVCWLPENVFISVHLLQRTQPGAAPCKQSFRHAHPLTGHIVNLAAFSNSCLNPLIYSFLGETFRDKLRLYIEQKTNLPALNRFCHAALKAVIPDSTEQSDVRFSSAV
T3 sequence (O08878 whole entry): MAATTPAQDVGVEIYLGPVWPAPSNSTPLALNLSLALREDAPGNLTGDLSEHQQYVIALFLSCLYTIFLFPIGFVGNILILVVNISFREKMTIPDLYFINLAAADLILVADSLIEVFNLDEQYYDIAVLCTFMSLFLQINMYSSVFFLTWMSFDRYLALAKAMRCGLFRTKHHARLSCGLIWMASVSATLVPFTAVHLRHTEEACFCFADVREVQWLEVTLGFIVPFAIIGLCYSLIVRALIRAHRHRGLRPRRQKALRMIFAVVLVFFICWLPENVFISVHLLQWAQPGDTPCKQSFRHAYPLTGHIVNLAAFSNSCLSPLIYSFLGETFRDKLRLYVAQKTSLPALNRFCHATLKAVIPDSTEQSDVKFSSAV
T2 sequence (B3G515 whole entry): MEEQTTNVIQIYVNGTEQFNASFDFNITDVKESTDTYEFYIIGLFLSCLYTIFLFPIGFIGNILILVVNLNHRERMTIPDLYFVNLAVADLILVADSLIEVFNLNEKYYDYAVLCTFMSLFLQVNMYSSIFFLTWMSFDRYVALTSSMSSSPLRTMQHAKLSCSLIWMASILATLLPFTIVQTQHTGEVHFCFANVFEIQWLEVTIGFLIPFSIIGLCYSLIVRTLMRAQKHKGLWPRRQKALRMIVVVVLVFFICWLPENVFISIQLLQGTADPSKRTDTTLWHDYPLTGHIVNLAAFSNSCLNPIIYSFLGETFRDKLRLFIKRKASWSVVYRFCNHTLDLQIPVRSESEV

As for `O=C(O)O` [bicarbonate], the values for the 50% effective concentration (EC50) on GPR30 [1] and at GPR30 [4] were 11.4 mM and 12.2 mM, respectively. The “cell-based activation assay of expressed receptor” value is given as “Activation of GPR30 by bicarbonate ions was conserved among various species, including rats” at GPR30 [2] and “Activation of GPR30 by bicarbonate ions was conserved among various species, including rats” at GPR30 [3].

Source of the values: article PMC10899177, “Bicarbonate signalling via G protein-coupled receptor regulates ischaemia-reperfusion injury” (Nature Communications, 2024).
